In patent US20190119282A1, “IMIDAZOPYRIDAZINES USEFUL AS INHIBITORS OF THE PAR-2 SIGNALING PATHWAY” (Vertex Pharmaceuticals Incorporated, priority 2013, published 2019):
pIC50: −log10 of the molar value.

Legend:
[1] = target: T1, PAR2 (HT-29 cells, SLIGKV activation) (Homo sapiens, UniProt P55085); experiment: Ca FLIPR TETRA assay, ANTAGONIST mode, stimulation with 8 μM SLIGKV; assay type: cell-based; conditions: HT-29 cells
T1 construct: host or cells: HT-29 cells
T1 sequence (P55085 26-397): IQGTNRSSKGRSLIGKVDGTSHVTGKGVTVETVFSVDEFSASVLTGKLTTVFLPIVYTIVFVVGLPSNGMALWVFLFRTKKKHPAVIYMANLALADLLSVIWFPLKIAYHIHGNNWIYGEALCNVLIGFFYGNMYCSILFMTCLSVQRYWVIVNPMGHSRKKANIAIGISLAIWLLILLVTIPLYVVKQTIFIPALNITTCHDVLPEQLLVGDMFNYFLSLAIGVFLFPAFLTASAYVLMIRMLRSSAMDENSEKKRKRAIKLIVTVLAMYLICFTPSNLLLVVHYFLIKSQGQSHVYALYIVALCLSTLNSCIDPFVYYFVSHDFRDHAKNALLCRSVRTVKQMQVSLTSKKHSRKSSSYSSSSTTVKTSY
Summary of the method: (§1)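 FLIPR Tetra Ca2+ read-out in HT-29 cells, calcium 5 dye. Compound preincubation 30 min r.t., with an initial read for agonist activity. Final activator levels: SLIGKV 8 μM, thrombin 1 U/mL, trypsin 3.1 U/mL, UTP 0.6 μM.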

[2] = tested on: Thrombin-stimulated Ca2+ response in HT-29 cells; experiment: Ca FLIPR TETRA assay, ANTAGONIST mode, stimulation with 1 U/mL Thrombin; assay type: cell-based, human; conditions: for pIC50: Homo sapiens, HT-29 cells
Summary of the method: as §1

[3] = target: T2, PAR2 (HT-29 cells, trypsin activation) (Homo sapiens, UniProt P55085); experiment: Ca FLIPR TETRA assay, ANTAGONIST mode, stimulation with 3.1 U/mL trypsin; assay type: cell-based; conditions: HT-29 cells
T2 construct: host or cells: HT-29 cells
T2 sequence (P55085 26-397): T1 sequence (P55085 26-397)
Summary of the method: as §1

[4] = tested on: UTP-stimulated Ca2+ response in HT-29 cells; experiment: Ca FLIPR TETRA assay, ANTAGONIST mode, stimulation with 0.6 μM UTP; assay type: cell-based, human; conditions: Homo sapiens, HT-29 cells
Summary of the method: as §1

[5] = antagonist mode, stimulation with 8 μM SLIGKV
[6] = antagonist mode, stimulation with 1 U/mL Thrombin
[7] = antagonist mode, stimulation with 3.1 U/mL trypsin
[8] = antagonist mode, stimulation with 0.6 μM UTP
[9] = stimulation with 1 U/mL Thrombin
[10] = stimulation with 3.1 U/mL trypsin

Compound | pIC50 [1, 5] | pIC50 [2, 6] | pIC50 [3, 7] | pIC50 [4, 8] | pIC50 ([1]; stimulation with 8 μM SLIGKV) | pIC50 [2, 9] | pIC50 [3, 10] | pIC50 ([4]; stimulation with 0.6 μM UTP) | other results
CC(C)(C)c1cc(-c2ccc(Cl)c(F)c2)nn2cc(C(=O)N3CCN(C(=O)c4ccccn4)CC3(C)C)nc12 [Compound I-455] | 9.22 | < 6.00 | 9.05 | < 6.00 |  |  |  |  | 
C[C@H]1CN(C(=O)c2cn3nc(-c4ccc(F)cc4)cc(C(F)(F)F)c3n2)CCN1C(=O)[C@H](N)CC1CCCCC1 [Compound I-16, (2R)-2-amino-3-cyclohexyl-1-[(2S)-4-[6-(4-fluorophenyl)-8-(trifluoromethyl)imidazo[1,2-b]pyridazine-2-carbonyl]-2-methyl-piperazin-1-yl]propan-1-one] |  |  |  |  | 7.43 | 4.96 | 6.55 | 4.96 | 
CC(C)c1cc(-c2ccc(F)cc2)nn2cc(C(=O)N3C[C@H](C)OCC3(C)C)nc12 [Compound I-187] | 7.20 | < 4.30 | 7.28 | 4.48 |  |  |  |  | 
CC(C)(C)c1cc(-c2ccc(C(F)(F)F)cc2)nn2cc(C(=O)N3CCN(C(=O)[C@H]4C[C@@](C)(O)C4)CC3(C)C)nc12 [Compound I-463] | 8.74 | < 6.00 | 8.57 | < 6.00 |  |  |  |  | 
CCc1cc(-c2ccc(F)cc2)nn2cc(C(=O)N3CCN(C(=O)[C@H](O)CC(C)C)[C@@H](C)C3)nc12 [Compound I-169] |  |  |  |  | 8.00 | 4.60 | 7.77 | 4.59 | 
CC(C)c1cc(-c2ccc(F)cc2)nn2cc(C(=O)N3CCN(C(=O)C4(O)CCC4)CC3(C)C)nc12 [Compound I-19, [6-(4-Fluorophenyl)-8-isopropyl-imidazo[1,2-b]pyridazin-2-yl]-[4-(1-hydroxycyclobutanecarbonyl)-2,2-dimethyl-piperazin-1-yl]methanone] |  |  |  |  | 7.60 |  | 7.25 | 4.30 | Thrombin % @ concentration ([2]; @ 50 (μM)): 62% @ 50
Cc1cc(-c2ccc(F)cc2)nn2cc(C(=O)N3CCCC4(COC4)C3)nc12 [Compound I-61] |  |  |  |  | 4.89 | 4.59 | 4.72 | 4.42 | 
CC(C)c1cc(C2=CCOCC2)nn2cc(C(=O)N3CCN(C(=O)C4(O)CCC4)CC3(C)C)nc12 [Compound I-44, [6-(3,6-dihydro-2H-pyran-4-yl)-8-isopropyl-imidazo[1,2-b]pyridazin-2-yl]-[4-(1-hydroxycyclobutanecarbonyl)-2,2-dimethyl-piperazin-1-yl]methanone] |  |  |  |  | 5.30 | < 4.30 | 5.02 | < 4.30 | 
Cc1ccc(-c2cc(C(C)(C)C)c3nc(C(=O)N4CCN(C(=O)c5ncccn5)CC4(C)C)cn3n2)cc1F [Compound I-426] | 8.77 | < 6.00 | 8.74 | < 6.00 |  |  |  |  | 
CC(C)(C)c1cc(-c2ccc(F)cc2)nn2cc(C(=O)N3CCN(C(=O)[C@H]4C[C@H](C(=O)O)C4)CC3(C)C)nc12 [Compound I-556, (1R,3R)-3-(4-(8-(tert-butyl)-6-(4-fluorophenyl)imidazo[1,2-b]pyridazine-2-carbonyl)-3,3-dimethylpiperazine-1-carbonyl)cyclobutane-1-carboxylic acid] |  |  |  |  |  |  |  |  | pIC50 ([1]; antagonist mode, 8 μM SLIGKV): 8.05; pIC50 ([2]; antagonist mode, 1 U/mL Thrombin): < 6.00; pIC50 ([3]; antagonist mode, 3.1 U/mL trypsin): 7.68; pIC50 ([4]; antagonist mode, 0.6 μM UTP): < 6.00
CC(C)(C)c1cc(-c2ccc(Cl)cc2)nn2cc(C(=O)N3CCN(C(=O)[C@H]4CC[C@@H](C(=O)O)CC4)CC3(C)C)nc12 [Compound I-490] | 10.00 | < 6.00 | 9.70 | < 6.00 |  |  |  |  | 
Cc1nc[nH]c1C(=O)N1CCN(C(=O)c2cn3nc(-c4ccc(F)cc4)cc(C(C)(C)C)c3n2)C(C)(C)C1 [Compound I-311] | 8.17 | < 6.00 | 8.39 | < 6.00 |  |  |  |  | 
CC(C)c1cc(-c2ccc(OC(F)(F)F)cc2)nn2cc(C(=O)N3CCN(C(=O)C(C)(C)O)CC3(C)C)nc12 [Compound I-219] | 6.85 | < 6.00 | 6.44 | < 6.00 |  |  |  |  | 
CC(C)c1cc(-c2ccc(F)cc2)nn2cc(C(=O)N3CCN(C(=O)C4(O)CCOCC4)CC34COC4)nc12 [Compound I-26, [6-(4-fluorophenyl)-8-isopropyl-imidazo[1,2-b]pyridazin-2-yl]-[8-(4-hydroxytetrahydropyran-4-carbonyl)-2-oxa-5,8-diazaspiro[3.5]nonan-5-yl]methanone] |  |  |  |  | 5.36 | 4.55 | 5.04 | 4.51 | 
CC(C)(C)c1cc(-c2ccc(F)cc2)nn2cc(C(=O)N3CCN(C(=O)c4ccncn4)CC3(C)C)nc12 [Compound I-231] | 8.96 | < 6.00 | 8.80 | < 6.00 |  |  |  |  | 
